Laboratory results as given in patent US9408852B2, “Method of lowering serum uric acid levels with (S)-tofisopam” (PHARMOS CORPORATION, priority 2011, dated 2016).
“And” between values parts separate entries of the source, which are not always exact repeats. Equal values may be shown once.

Legend:
[1] = system: serum uric acid; assay: Serum uric acid after single oral doses in male healthy volunteers (Example 2); type: in vivo, human; settings: for Mean CFB (change from baseline) in uric acid levels: male healthy volunteers, n = 6
Procedure: Male healthy volunteers received 50-400 mg enantiomerically-pure (S)-tofisopam by oral administration. Mean serum uric acid values fell by 23% to 30% within 4 hours after receiving single doses (Table 1).

[2] = system: serum uric acid; assay: Serum uric acid in healthy men and postmenopausal women, single-dose and multiple-dose phases (Example 3); type: in vivo, human
Source text: (§1) In another study in healthy men and postmenopausal women, the trial period included a single-dose phase (Day 1) and a multiple-dose phase (Days 2-6). […] With multiple-dose oral administration (twice a day (BID) or three times a day (TID) on days 2-6), this decrease was more pronounced.

[3] = system: fractional excretion of uric acid; assay: Post hoc analysis of clinical trial specimens: fractional excretion of uric acid and renal function (Example 3); type: in vivo, human; settings: 50 mg TID
Source text: as §1

[4] = target: xanthine oxidase (Homo sapiens, UniProt P47989); assay: Xanthine oxidase inhibition; type: biochemical; settings: unlike allopurinol
[5] = system: serum creatinine; assay: Serum creatinine in male and female patients with hyperuricemia and gout, 7 days (Example 8); type: in vivo, human; settings: 50 mg qd Day 1 and Day 7, tid Days 2 to 6, hyperuricemia and gout
Procedure: The study lasted 7 days, and patients were treated with placebo or 50 mg of enantiomerically-pure (S)-tofisopam once a day (qd) on Day 1 and Day 7 of the study, and with placebo or 50 mg of enantiomerically-pure (S)-tofisopam three times a day (tid) for Days 2 to 6 of the study. […] In Table 7, days indicated with a minus sign (e.g. D-1) indicate the time point corresponding to that number of days before treatment was initiated. For example, D-14 is the time point fourteen days before treatment was initiated.

[6] = Day 1 to Day 2: Day 1 0 h + Day 2

xanthine oxidase, sequence (P47989 whole entry, species assumed): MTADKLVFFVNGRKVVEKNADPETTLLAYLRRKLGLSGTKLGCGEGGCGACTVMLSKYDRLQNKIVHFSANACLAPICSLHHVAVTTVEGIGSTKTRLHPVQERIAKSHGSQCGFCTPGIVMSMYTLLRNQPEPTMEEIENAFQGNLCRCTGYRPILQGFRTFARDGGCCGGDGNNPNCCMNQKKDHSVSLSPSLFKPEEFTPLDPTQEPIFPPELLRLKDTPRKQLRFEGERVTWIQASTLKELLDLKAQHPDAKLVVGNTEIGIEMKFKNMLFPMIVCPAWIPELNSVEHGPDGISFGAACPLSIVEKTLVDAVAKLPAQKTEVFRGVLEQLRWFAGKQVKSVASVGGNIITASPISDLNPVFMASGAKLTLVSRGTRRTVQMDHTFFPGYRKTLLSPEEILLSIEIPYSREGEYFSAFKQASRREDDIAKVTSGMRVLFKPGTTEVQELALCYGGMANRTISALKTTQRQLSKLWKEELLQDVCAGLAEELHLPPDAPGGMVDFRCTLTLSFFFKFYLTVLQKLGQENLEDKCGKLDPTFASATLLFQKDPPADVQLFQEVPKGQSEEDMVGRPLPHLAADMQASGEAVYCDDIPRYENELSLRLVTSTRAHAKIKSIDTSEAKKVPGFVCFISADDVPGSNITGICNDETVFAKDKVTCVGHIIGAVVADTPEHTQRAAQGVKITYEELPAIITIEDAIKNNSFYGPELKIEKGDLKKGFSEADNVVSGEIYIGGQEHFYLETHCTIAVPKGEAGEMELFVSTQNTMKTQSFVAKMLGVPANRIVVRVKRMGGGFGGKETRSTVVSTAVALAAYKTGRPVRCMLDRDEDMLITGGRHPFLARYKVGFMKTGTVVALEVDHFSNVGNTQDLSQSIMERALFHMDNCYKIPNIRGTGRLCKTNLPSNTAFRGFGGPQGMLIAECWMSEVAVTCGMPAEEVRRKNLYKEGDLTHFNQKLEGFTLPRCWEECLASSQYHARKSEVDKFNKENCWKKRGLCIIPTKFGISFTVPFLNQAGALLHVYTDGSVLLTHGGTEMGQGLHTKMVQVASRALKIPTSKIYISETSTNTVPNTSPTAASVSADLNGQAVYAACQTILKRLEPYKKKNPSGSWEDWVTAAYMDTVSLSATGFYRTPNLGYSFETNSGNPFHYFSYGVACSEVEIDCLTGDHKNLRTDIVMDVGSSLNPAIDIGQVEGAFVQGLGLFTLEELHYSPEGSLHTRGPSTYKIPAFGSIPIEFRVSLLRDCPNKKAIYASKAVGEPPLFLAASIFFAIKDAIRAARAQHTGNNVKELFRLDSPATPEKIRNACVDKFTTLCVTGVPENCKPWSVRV

CC[C@@H]1C(C)=NN=C(c2ccc(OC)c(OC)c2)c2cc(OC)c(OC)cc21 [(S)-tofisopam]
Mean CFB (change from baseline) in uric acid levels ([1]; single oral dose 50 mg, 4 hours after dose): −23% | Mean CFB (change from baseline) in uric acid levels ([1]; single oral dose 50 mg, 24 hours after dose): −25% | Mean CFB (change from baseline) in uric acid levels ([1]; single oral dose 50 mg, 48 hours after dose): −24% | Mean CFB (change from baseline) in uric acid levels ([1]; single oral dose 100 mg, 4 hours after dose): −25% | Mean CFB (change from baseline) in uric acid levels ([1]; single oral dose 100 mg, 24 hours after dose): −28% | Mean CFB (change from baseline) in uric acid levels ([1]; single oral dose 100 mg, 48 hours after dose): −29% | Mean CFB (change from baseline) in uric acid levels ([1]; single oral dose 200 mg, 4 hours after dose): −29% | Mean CFB (change from baseline) in uric acid levels ([1]; single oral dose 200 mg, 24 hours after dose): −36% | Mean CFB (change from baseline) in uric acid levels ([1]; single oral dose 200 mg, 48 hours after dose): −37% | Mean CFB (change from baseline) in uric acid levels ([1]; single oral dose 300 mg, 4 hours after dose): −30% | Mean CFB (change from baseline) in uric acid levels ([1]; single oral dose 300 mg, 24 hours after dose): −48% | Mean CFB (change from baseline) in uric acid levels ([1]; single oral dose 300 mg, 48 hours after dose): −49% | Mean CFB (change from baseline) in uric acid levels ([1]; single oral dose 400 mg, 4 hours after dose): −27% | Mean CFB (change from baseline) in uric acid levels ([1]; single oral dose 400 mg, 24 hours after dose): −48% | Mean CFB (change from baseline) in uric acid levels ([1]; single oral dose 400 mg, 48 hours after dose): −45% | Time course of uric acid levels after single dose ([1]; single oral doses 50-400 mg, 4, 24 and 48 hours): decreased further up to the 24-hour timepoint, with no further decrease at 48 hours | Dose relation of decreases in uric acid levels ([1]; single oral doses 50-400 mg, slightly lower decreases at 400 mg): dose-related up to the 300 mg dose | Change from Baseline serum uric acid ([2]; 50 mg TID (single dose Day 1), Postmenopausal women, Day 2 AM): −27% | Change from Baseline serum uric acid ([2]; 50 mg TID (single dose Day 1), Postmenopausal women, Day 4 AM): −58% | Change from Baseline serum uric acid ([2]; 50 mg TID (single dose Day 1), Postmenopausal women, Day 7 AM): −65% | Change from Baseline serum uric acid ([2]; 50 mg TID (single dose Day 1), Young men, Day 2 AM): −19% | Change from Baseline serum uric acid ([2]; 50 mg TID (single dose Day 1), Young men, Day 4 AM): −63% | Change from Baseline serum uric acid ([2]; 50 mg TID (single dose Day 1), Young men, Day 7 AM): −59% | Change from Baseline serum uric acid ([2]; 150 mg BID (single dose Day 1), Postmenopausal women, Day 2 AM): −48% | Change from Baseline serum uric acid ([2]; 150 mg BID (single dose Day 1), Postmenopausal women, Day 4 AM): −76% | Change from Baseline serum uric acid ([2]; 150 mg BID (single dose Day 1), Postmenopausal women, Day 7 AM): −71% | Change from Baseline serum uric acid ([2]; 150 mg BID (single dose Day 1), Young men, Day 2 AM): −31% | Change from Baseline serum uric acid ([2]; 150 mg BID (single dose Day 1), Young men, Day 4 AM): −72% | Change from Baseline serum uric acid ([2]; 150 mg BID (single dose Day 1), Young men, Day 7 AM): −72% | Uric acid levels after a single oral dose ([2]; 24 hours after single dose of 50 mg or 150 mg (Day 1), men and women): Decreased | Reductions from baseline in uric acid ([2]; by the morning of Day 4, male and female subjects, 50 mg TID or 150 mg BID): > 50% | Effect on other common parameters of renal function [3]: no measurable effect | Fractional excretion of uric acid [3]: increases | Renal injury [3]: no sign of renal injury | Inhibition of xanthine oxidase [4]: does not inhibit | Percent change in serum creatinine, individual patients (P# 1-13) ([5]; Day 1 6 h (Day 1 0 h = 0.0)): 10.1% and 0.9% and 2.9% and 0.0% (2×) and 1.8% and 5.7% and 4.8% and 10.3% | Percent change in serum creatinine, mean (M) of 13 patients ([5]; Day 1 6 h (Day 1 0 h = 0.0)): 2.5% | Percent change in serum creatinine, individual patients (P# 1-13) [5, 6]: 4.4% and 0.9% and 0.5% (2×) and −1.0% and 2.3% and 0.8% and −1.3% and 6.7% | Percent change in serum creatinine, mean (M) of 13 patients [5, 6]: 1.1% | Percent change in serum creatinine, individual patients (P# 1-13) ([5]; Day 2 (Day 1 0 h = 0.0)): 8.9% and 1.9% and 1.0% and −2.0% and 4.5% and 0.9% and 1.6% and −2.6% and 13.3% | Percent change in serum creatinine, mean (M) of 13 patients ([5]; Day 2 (Day 1 0 h = 0.0)): 2.1% | Percent change in serum creatinine, individual patients (P# 1-13) ([5]; Day 3 (Day 1 0 h = 0.0)): 7.6% and 3.7% and 13.6% and 2.0% and 16.2% and 10.4% and 4.8% and 17.9% and 24.0% and 14.9%
